Experimental data as given in patent US7208517B1, “Endothelin antagonists” (Abbott Labortories, priority 1994, dated 2007).
Like-named read-outs stand apart in the source and are kept apart here.

Columns and labels:
[1] = molecular target: T1, ETA Receptor (Rattus norvegicus, UniProt P26684); test: [125I]ET-1 binding to membranes from MMQ cells (ETA receptor binding assay, Table 4); details: for inhibition at 1 µM: read-out: % Inhibition of ETA at 1 μM
T1 construct: endogenous in cells; host or cells: MMQ rat pituitary cells (membranes)
T1 sequence (P26684 21-426): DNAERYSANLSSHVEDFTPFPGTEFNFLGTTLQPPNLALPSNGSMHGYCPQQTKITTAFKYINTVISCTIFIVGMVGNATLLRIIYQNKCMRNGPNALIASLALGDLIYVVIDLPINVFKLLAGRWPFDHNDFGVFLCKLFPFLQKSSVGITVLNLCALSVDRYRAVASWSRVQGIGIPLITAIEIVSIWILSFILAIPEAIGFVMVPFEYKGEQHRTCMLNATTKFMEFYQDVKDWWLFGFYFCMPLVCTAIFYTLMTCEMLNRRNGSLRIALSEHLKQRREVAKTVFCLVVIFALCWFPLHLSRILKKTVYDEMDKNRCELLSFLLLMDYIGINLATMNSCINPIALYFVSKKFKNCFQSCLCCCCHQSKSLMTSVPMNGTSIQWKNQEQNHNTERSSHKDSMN

[2] = molecular target: T2, ETB receptors of porcine cerebellar tissues (pET-B) (Sus scrofa, UniProt P35463); test: ETA/ETB selectivity: (125I)ET-3 competition binding, ETB assay in porcine cerebellum membranes (pET-B)
T2 construct: porcine cerebellar tissues (known to contain ETB receptors); from tissue; host or cells: porcine cerebellum (membranes)
T2 sequence (P35463 27-443): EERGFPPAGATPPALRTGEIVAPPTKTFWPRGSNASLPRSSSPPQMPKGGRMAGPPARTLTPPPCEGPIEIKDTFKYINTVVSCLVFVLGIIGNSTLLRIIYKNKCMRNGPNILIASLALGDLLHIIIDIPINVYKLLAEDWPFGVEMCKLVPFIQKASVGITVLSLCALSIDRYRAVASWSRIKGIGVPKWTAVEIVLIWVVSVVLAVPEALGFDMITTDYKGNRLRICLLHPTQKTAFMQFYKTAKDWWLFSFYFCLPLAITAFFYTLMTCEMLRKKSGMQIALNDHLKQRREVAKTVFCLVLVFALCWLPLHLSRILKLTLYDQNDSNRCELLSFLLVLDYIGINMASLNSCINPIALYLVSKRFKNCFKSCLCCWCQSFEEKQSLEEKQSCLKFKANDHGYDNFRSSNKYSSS
Description: (§1) The mixture was centrifuged at 1000×g for 10 min. The supernatant was collected and centrifuged at 60,000×g for 60 min. The precipitate was resuspended in 20 mM Tris, pH 7.4 containing protease inhibitor and centrifuged again. The final membrane pellet was resuspended in 20 mM Tris, pH 7.4 containing protease inhibitors and stored at −80° C. until used. Protein content was determined by the Bio-Rad dye-binding protein assay.
(§2) Binding assays were performed in 96-well microtiter plates pretreated with 0.1% BSA. […] After incubation, unbound ligands were separated from bound ligands by a vacuum filtration method using glass-fiber filter strips in PHD cell harvesters (Cambridge Technology, Inc., MA), washing the filter strips three times with saline (1 mL). Nonspecific binding was determined in the presence of 1 μM ET-1. IC50 values are calculated using an average of at least two separate determinations.

[3] = molecular target: T3, ETA receptor in MMQ cells (rET-A) (Rattus norvegicus, UniProt P26684); test: ETA/ETB selectivity: (125I)ET-1 competition binding, ETA assay in MMQ cell membranes (rET-A)
T3 construct: endogenous in cells; host or cells: MMQ rat pituitary cells (membranes)
T3 sequence (P26684 21-426): T1 sequence (P26684 21-426)
Description: as §1, §2

[4] = test compound at 1 μM, 0.1 nM [125I]ET-1, MMQ cell membranes, 4 hours at 25° C.
[5] = MMQ cell membranes, 0.1 nM (125I)ET-1, read-out: rET-A IC50
[6] = porcine cerebellum membranes, 0.1 nM (125I)ET-3, read-out: pET-B IC50

Row | SMILES | inhibition at 1 µM [1, 4] [%] | IC50 [3, 5] [µM] | % Inhibition of ETA at 1 μM [1, 4] [%] | also measured
1 | CCCCN(CCCC)C(=O)CN1C[C@H](c2cc(OC)c3c(c2)OCO3)[C@@H](C(=O)O)[C@@H]1CC(C)(C)CCC [compound 536] | 100 | 0.00052 | – | IC50 [2]: 17 µM
2 | CCCCN(CCCC)C(=O)CN1CC(c2ccc3c(c2)OCO3)C(C(=O)O)C1CC(C)CCC (stereo not shown) [compound 502] | – | – | – | inhibition at 1 µM [1]: 95.7%; IC50 [2]: 71 µM; IC50 [3]: 0.003 µM
3 | CCCCN(CCCCN)C(=O)CN1CC(c2ccc3c(c2)OCO3)C(C(=O)O)C1c1ccc(OC)cc1 (stereo not shown) [compound 529] | 98.1 | 0.0036 | – | IC50 [2, 6]: 6.3 µM
4 | CCCCN(CCCC)C(=O)CN1CC(c2cc(OC)c3c(c2)OCO3)C(C(=O)O)C1CC(C)(C)CCC (stereo not shown) [compound 514] | 100 | 0.001 | – | IC50 [2]: 26 µM
5 | CCCCN(CCC[N+](C)(C)C)C(=O)CN1CC(c2ccc3c(c2)OCO3)C(C(=O)O)C1c1ccc(OC)cc1 (stereo not shown) [compound 528] | 98.3 | 0.011 | – | IC50 [2, 6]: 43 µM
6 | CCCCN(CCCC)C(=O)CN1C[C@H](c2ccc3c(c2)OCO3)[C@@H](C(=O)O)[C@@H]1CCN1CCCC1=O [compound 520] | 97.4 | 0.0002 | – | IC50 [2, 6]: 28 µM
7 | CCC1CCCCN1C(=O)CN1CC(c2ccc3c(c2)OCO3)C(C(=O)O)C1c1ccc(OC)cc1 (stereo not drawn) [Example 302, trans—trans-2-(4-Methoxyphenyl)-4-(1,3-benzodioxol-5-yl)-1-[2-ethylpiperidinyl-carbonylmethyl]-pyrrolidine-3-carboxylic acid] | – | – | 86.6 | –
8 | CCCCN(CCCN(C)C)C(=O)CN1CC(c2ccc3c(c2)OCO3)C(C(=O)O)C1c1ccc(OC)cc1 (stereo not shown) [compound 527] | 96.6 | 0.0079 | – | IC50 [2, 6]: 10 µM
9 | COc1ccc(C2C(C(=O)O)C(c3ccc4c(c3)OCO4)CN2CC(=O)N2CCc3ccccc3C2)cc1 (stereo not drawn) [Example 296, trans—trans-2-(4-Methoxyphenyl)-4-(1,3-benzodioxol-5-yl)-1-[1,2,3,4-tetrahydroisoquinolin-2-carbonylmethyl]-pyrrolidine-3-carboxylic acid] | – | – | 87.1 | –
10 | CCCCN(CCCC)C(=O)CN1CC(c2ccc3c(c2)CCO3)C(C(=O)O)C1c1ccc(C(C)(C)C)cc1 (stereo not drawn) [Example 159, trans,trans-1-(N,N-Di(n-butyl)aminocarbonylmethyl)-2-(4-t-butylphenyl)-4-(5-benzo-2,3-dihydrofuranylpyrrolidine-3-carboxylic acid] | – | – | 36.2 | –
11 | COc1ccc(C2C(C(=O)O)C(c3ccc4c(c3)OCO4)CN2CC(=O)N2CC[C@@H]3CCCC[C@H]3C2)cc1 (relative stereo) [Example 293, trans—trans-2-(4-Methoxyphenyl)-4-(1,3-benzodioxol-5-yl)-1-[decahydroisoquinolin-2-carbonylmethyl]-pyrrolidine-3-carboxylic acid] | – | – | 89.8 | –
12 | CCC[C@H](C(=O)N(CCC)CCC)N1C[C@@H](c2ccc3c(c2)OCO3)[C@@H](C(=O)O)[C@@H]1c1ccc(OC)cc1 [Example 75C, (2R,3R,4R)-2-(4-Methoxyphenyl)-4-(1,3-benzodioxol-5-yl)-1-((1R)-1-(N,N-dipropylaminocarbonyl)-1-butyl)pyrrolidine-3-carboxylic acid] | 95.3 | – | – | –
13 | CCCCN(CCCC)C(=O)CN1CC(c2ccc3c(c2)OCO3)C(C(=O)O)C1c1ccccc1F (stereo not drawn) [Example 166, trans,trans-1-(N,N-Di(n-butyl)aminocarbonylmethyl)-2-(2-fluorophenyl)-4-(1,3-benzodioxol-5-yl)pyrrolidine-3-carboxylic acid] | – | – | 91.6 | –
14 | CCCN(CCN1CC(c2ccc3c(c2)OCO3)C(C(=O)O)C1c1ccc(OC)cc1)S(=O)(=O)c1ccc(Cl)cc1 (stereo not drawn) [Example 132, trans,trans-1-(2-(N-Propyl-N-(4-chlorobenzenesulfonyl)amino)ethyl)-2-(4-methoxyphenyl)-4-(1,3-benzodioxol-5-yl)pyrrolidine-3-carboxylic acid] | – | – | 90.0 | –
15 | CCCN(CCN1CC(c2ccc3c(c2)OCO3)C(C(=O)O)C1c1ccc(OC)cc1)S(=O)(=O)Cc1ccccc1 (stereo not drawn) [Example 133, trans,trans-1-(2-(N-Propyl-N-(benzylsulfonyl)amino)ethyl)-2-(4-methoxyphenyl)-4-(1,3-benzodioxol-5-yl)pyrrolidine-3-carboxylic acid] | – | – | 88.6 | –
16 | CCCC(CCC)N(C(=O)CN1C[C@H](c2ccc3c(c2)OCO3)[C@@H](C(=O)O)[C@@H]1CCN1CCCC1=O)c1ccc(F)c(C)c1 [compound 521] | 100 | 0.00067 | – | IC50 [2, 6]: 37 µM
17 | CCCCN(CCCC)C(=O)CN1CC(c2ccc3c(c2)OCO3)C(C(=O)O)C1c1cccc(F)c1 (stereo not drawn) [Example 167, trans,trans-1-(N,N-Di(n-butyl)aminocarbonylmethyl)-2-(3-fluorophenyl)-4-(1,3-benzodioxol-5-yl)pyrrolidine-3-carboxylic acid] | – | – | 94.4 | –
18 | CCCN(C)C(=O)CN1CC(c2ccc(O)cc2)C(C(=O)O)C1c1ccc(OC)cc1 (stereo not drawn) [Example 146, trans,trans-1-(N-Methyl-N-propylaminocarbonylmethyl)-2-(4-methoxyphenyl)-4-(4-hydroxyphenyl)pyrrolidine-3-carboxylic acid] | – | – | 25.0 | –
